Results from patent US20250171495A1, “MUTLI-TARGETED SERINE PROTEASE INHIBITORS FOR TREATMENT OF CANCER AND VIRAL INFECTION” (Washington University, priority 2023, published 2025).
Where two headings read alike, the source gives them in different places.

Tests used:
[1] = tested on: VSV-SARS-CoV-2
[2] = tested on: VSV-SARS-CoV-2; experiment: microbe, parasite or virus in culture; conditions: Vesicular stomatitis virus, Calu-3, in Homo sapiens, read-out: VSV SARS CoV-2 Cell Entry EC50 (nM)

CC(=O)N[C@H]1CC(=O)NCCCC[C@@H](C(=O)N[C@@H](CCCNC(=N)N)C(=O)c2nc3ccccc3s2)NC(=O)[C@H](CC(C)C)NC1=O [VD2173, Ac-Cyclo(DLK)—R-ketobenzothiazole]
EC50 ([1]; VSV-): 0.197 µM

CC(=O)N[C@@H](CCCCN)C(=O)N[C@@H](CCC(N)=O)C(=O)N[C@@H](CC(C)C)C(=O)N[C@@H](CCCNC(=N)N)C(=O)c1nc2ccccc2s1 [ZFH7006, N-[(S)-3-methyl-1-[N-(S)-1-[(1,3-benzothiazol-2-yl)carbonyl]-4-guanidinobutylcarbamoyl]butyl](S)-2-[(S)-1-acetylamino-5-aminopentylcarbonyl-amino]glutaramide]
EC50 ([1]; read-out: VSV SARS CoV-2 Cell Entry EC50): 0.652 µM | EC50 [2]: 572 nM

CCC(C)[C@H](NC(C)=O)C(=O)N[C@@H](CCC(N)=O)C(=O)N[C@H](C(=O)N[C@H](CCCNC(=N)N)C(=O)c1nc2ccccc2s1)C(C)C (stereo partly drawn) [MM3180-1, N-[(S)-2-methyl-1-[N-(R)-1-[(1,3-benzothiazol-2-yl)carbonyl]-4-guanidinobutylcarbamoyl]propyl](S)-2-[(2S)-2-acetylamino-3-methylvalerylamino]glutaramide]
EC50 [2]: 5.3 nM

CCC(C)[C@H](NC(C)=O)C(=O)N[C@@H](CCC(N)=O)C(=O)N[C@@H](C)C(=O)N[C@@H](CCCNC(=N)N)C(=O)c1nc2ccccc2s1 (stereo partly drawn) [MM3178, N-[(S)-1-[N-(S)-1-[(1,3-benzothiazol-2-yl)carbonyl]-4-guanidinobutylcarbamoyl]ethyl](S)-2-[(2S)-2-acetylamino-3-methylvalerylamino]glutaramide]
EC50 [2]: 10.8 nM

CC(=O)N[C@@H](CCC(N)=O)C(=O)N[C@@H](Cc1ccccc1)C(=O)N[C@@H](CCCNC(=N)N)C(=O)c1nc2ccccc2s1 [MM3144, N-[(S)-1-[N-(S)-1-[(1,3-benzothiazol-2-yl)carbonyl]-4-guanidinobutylcarbamoyl]-2-phenylethyl](S)-2-acetylaminoglutaramide]
EC50 [2]: 0.53 nM

CC(=O)N[C@@H](Cc1c[nH]c2ccccc12)C(=O)N[C@@H](Cc1ccccc1)C(=O)N[C@@H](CCCNC(=N)N)C(=O)c1nc2ccc(C(=O)O)cc2s1 [PK-1-103, 2-[(S)-2-[(S)-2-[(S)-2-acetylamino-3-(3-indolyl)propionylamino]-3-phenylpropionylamino]-5-guanidinovaleryl]-1,3-benzothiazole-6-carboxylic acid]
EC50 [2]: 116 nM

CC(=O)N[C@H]1Cc2ccc(cc2)OCCCC[C@@H](C(=O)N[C@@H](CCCNC(=N)N)C(=O)c2nc3ccccc3s2)NC(=O)[C@@H](Cc2c[nH]c3ccccc23)NC1=O [VD4162B, N-[(S)-1-[(1,3-benzothiazol-2-yl)carbonyl]-4-guanidinobutyl]-(7S,10R,13S)-13-acetylamino-10-[(3-indolyl)methyl]-9,12-dioxo-2-oxa-8,11-diazabicyclo[13.2.2]nonadeca-1(17),15,18-triene-7-carboxamide]
EC50 [2]: 2060 nM

CCC(C)[C@H](NC(C)=O)C(=O)N[C@@H](CCC(N)=O)C(=O)N[C@H](C(=O)N[C@@H](CCCNC(=N)N)C(=O)c1nc2ccccc2s1)C(C)C (stereo partly drawn) [MM3180-2, N-[(S)-2-methyl-1-[N-(S)-1-[(1,3-benzothiazol-2-yl)carbonyl]-4-guanidinobutylcarbamoyl]propyl](S)-2-[(2S)-2-acetylamino-3-methylvalerylamino]glutaramide]
EC50 [2]: 12 nM

CCC(C)[C@H](NC(C)=O)C(=O)N[C@@H](CO)C(=O)N[C@@H](Cc1ccccc1)C(=O)N[C@@H](CCCNC(=N)N)C(=O)c1nc2ccccc2s1 (stereo partly drawn) [MM4009-2, N-[(S)-2-hydroxy-1-[N-(S)-1-[N-(S)-1-[(1,3-benzothiazol-2-yl)carbonyl]-4-guanidinobutylcarbamoyl]-2-phenylethylcarbamoyl]ethyl] (2S)-2-acetylamino-3-methylvaleramide]
EC50 [2]: 40.3 nM

CC(=O)N[C@@H](CO)C(=O)N[C@@H](CCCCN)C(=O)N[C@@H](CC(C)C)C(=O)N[C@@H](CCCNC(=N)N)C(=O)c1nc2ccccc2s1 [ZFH7053, N-[(S)-3-methyl-1-[N-(S)-1-[(1,3-benzothiazol-2-yl)carbonyl]-4-guanidinobutylcarbamoyl]butyl](S)-2-[(S)-2-acetylamino-3-hydroxypropionylamino]-6-aminohexanamide]
EC50 [2]: 4270 nM

CC(=O)N[C@@H](CO)C(=O)N[C@@H](CCCCN)C(=O)N[C@@H](Cc1ccccc1)C(=O)N[C@@H](CCCNC(=N)N)C(=O)c1nccs1 [ZFH6095, N-[(S)-1-[N-(S)-4-guanidino-1-[(1,3-thiazol-2-yl)carbonyl]butylcarbamoyl]-2-phenylethyl](S)-2-[(S)-2-acetylamino-3-hydroxypropionylamino]-6-aminohexanamide]
EC50 [2]: 1160 nM

CC(=O)NCC(=O)N[C@@H](CCC(N)=O)C(=O)N[C@@H](Cc1ccccc1)C(=O)N[C@@H](CCCNC(=N)N)C(=O)c1nc2ccccc2s1 [MM3122, N-[(S)-1-[N-(S)-1-[(1,3-benzothiazol-2-yl)carbonyl]-4-guanidinobutylcarbamoyl]-2-phenylethyl](S)-2-[(acetylaminomethyl)carbonylamino]glutaramide]
EC50 [2]: 0.43 nM
